In patent US9254269B2, “Method of managing hypercortisolemia, headache disorders, neuropathic pain and related disorders” (Indus Biotech Private Limited, priority 2011, dated 2016):

How the values were obtained:
5-HT1A receptor = target: T1, 5-HT1A receptor (Mus musculus, UniProt Q64264); assay: Forced swim test, alone and after 5-HT1A receptor antagonist NAN-190; assay type: in vivo, Swiss albino mice; conditions: NAN-190 1 mg/kg p.o. alone
T1 construct: Male Swiss albino mice weighing 25-30 g were treated with antagonist of 5-HT1A receptor (NAN-190); from tissue; host or cells: whole living animal (male Swiss albino mice)
T1 sequence (Q64264 1-421): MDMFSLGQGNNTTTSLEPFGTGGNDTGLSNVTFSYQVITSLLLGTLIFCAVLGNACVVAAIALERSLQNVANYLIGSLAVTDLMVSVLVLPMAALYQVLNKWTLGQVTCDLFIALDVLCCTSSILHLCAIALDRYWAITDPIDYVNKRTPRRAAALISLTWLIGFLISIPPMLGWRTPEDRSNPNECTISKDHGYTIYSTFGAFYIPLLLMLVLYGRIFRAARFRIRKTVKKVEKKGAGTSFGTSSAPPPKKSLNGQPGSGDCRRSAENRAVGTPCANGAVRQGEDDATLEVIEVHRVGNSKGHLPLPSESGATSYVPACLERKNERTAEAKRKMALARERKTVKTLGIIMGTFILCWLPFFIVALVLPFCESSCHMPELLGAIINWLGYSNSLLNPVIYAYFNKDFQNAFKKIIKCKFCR
Protocol: The activity of the test composition was evaluated by first blocking the 5-HT1A receptor with an antagonist followed by treatment with the test composition. The activity was measured in terms of immobility time of the test animals subjected to forced swim test.
Procedure: Male Swiss albino mice weighing 25-30 g were treated with antagonist of 5-HT1A receptor (NAN-190) at 1 mg/kg (p.o.) followed by administration of test composition at either 10 mg/kg (p.o.) or 30 mg/kg (p.o.). One hour after treatment, the animals were subjected to forced swim test and the immobility time was measured. A cut-off time of 360 sec was used.

[1] = test system: Nitroglycerine induced hyperalgesia in rats; assay: Tail flick response latency in nitroglycerine induced hyperalgesia, oral treatment; test composition 41% asiaticoside and 36% madecassoside; assay type: in vivo, Wistar rats; conditions: 20 mg/kg p.o.

SMILES	Immobility Time (5-HT1A receptor) [s]	% Reduction in Immobility Time (5-HT1A receptor; vs Normal Control) [%]	Response latency in tail flick ([1]; 0 min after treatment, 20 seconds cut off)	Response latency in tail flick ([1]; 30 min after treatment)	Response latency in tail flick ([1]; 60 min after treatment)	Response latency in tail flick ([1]; 90 min after treatment)	Response latency in tail flick ([1]; 120 min after treatment)	Response latency in tail flick ([1]; 180 min after treatment)	Response latency in tail flick ([1]; 240 min after treatment)
COc1ccccc1N1CCN(CCCCN2C(=O)c3ccccc3C2=O)CC1 [NAN-190]	232.0 ± 1.63	−8.26	–	–	–	–	–	–	–
CC(C)=CCN1CCC2(C)c3cc(O)ccc3CC1C2C (stereo not drawn) [Pentazocine]	–	–	8.42 ± 0.22	15.27 ± 0.26	15.23 ± 0.17	15.78 ± 0.24	15.50 ± 0.48	15.18 ± 0.45	15.03 ± 0.28
